# Measurements published in patent US11453681B2, “Substituted eneoxindoles and uses thereof” (Gilead Sciences, Inc., priority 2019, dated 2022).
# Target: human HPK1 (MAP4K1) (Homo sapiens (Human), UniProt Q92918)
# Experiment: HPK1 IC50 Assay
# Assay type: biochemical
# Settings: recombinant HPK1 kinase domain 0.15 nM, synthetic peptide substrate STK S1, 3 hours at 25° C., time-resolved fluorescence energy transfer; geometric mean of multiple experiments
# Method: The enzymatic activity of human HPK1 (MAP4K1) was monitored in a biochemical assay in the presence or absence of compounds and using a synthetic peptide substrate. An increase in phosphorylation of the peptide by HPK1 was indicative of its kinase activity.
# Recombinant HPK1 kinase domain produced via baculovirus infection of insect cells was obtained from Proteros (Proteros Biostructures #PR-0322) and was pre-activated in the presence of 2 mM ATP (Sigma-Aldrich, cat #GE27-2056-01) and 2 mM magnesium chloride for 16 hours at 4° C. The protein reaction mixture was then loaded to a desalting column (Thermo Fisher Scientific, Cat #89889) to remove excess ATP. HPK1 was eluted with buffer containing 20 mM Tris (2-Amino-2-(hydroxymethyl)propane-1,3-diol) pH 8.0, 150 mM NaCl, 2 mM dithiothreitol and 5% glycerol, and was frozen at −80° C. for later use. HPK1 dual phosphorylation was confirmed by mass spectrometry.
# Ten nanoliters of test compounds dissolved in DMSO at various concentrations were dispensed into a 384-well ProxiPlate (PerkinElmer #6008289). Five microliters of a solution of recombinant HPK1 diluted in HPK1 kinase assay buffer (50 mM BES [N,N-Bis(2-hydroxyethyl)-2-aminoethanesulfonic acid], pH 7.0; 10 mM magnesium chloride; 0.01% Triton X-100; 1 mM dithiothreitol; 0.01% bovine serum albumin; 0.1 mM sodium orthovanadate) was added to the compound-containing plate and was incubated for 15 minutes at 25° C. Five microliters of a mixture of ATP (Sigma-Aldrich #A6559) and peptide substrate STK Si (Cisbio #61ST1BLC) diluted in HPK1 kinase assay buffer was then added to start the reaction. Final concentrations were 0.15 nM for HPK1, […], and 1 […]. The reaction mixture was incubated at 25° C. for 3 hours and was stopped with the addition of 10 μl of an EDTA (Ethylenediaminetetraacetic acid)-containing detection buffer (Cisbio #62SDBRDF) supplemented with Europium cryptate-labeled anti-phospho-serine/threonine antibodies (Cisbio #62ST1PEJ) and XL665-labeled streptavidin (Cisbio #610SAXLG). The mixture was incubated for 16 hours at room temperature and peptide phosphorylation was measured by time-resolved fluorescence energy transfer (665 nm/620 nm) on an Envision plate reader (PerkinElmer).
# Data in Table 1 were normalized based on positive (staurosporine) and negative (DMSO) controls. Least squares curve fittings were performed using a four-parameter variable slope nonlinear regression model. IC50 is defined as the concentration of compound required to inhibit 50% of maximum phosphorylation. IC50 values from multiple experiments were averaged by geometric mean and the standard deviation was calculated.
# Sequence of human HPK1 (MAP4K1) (Q92918 17-274): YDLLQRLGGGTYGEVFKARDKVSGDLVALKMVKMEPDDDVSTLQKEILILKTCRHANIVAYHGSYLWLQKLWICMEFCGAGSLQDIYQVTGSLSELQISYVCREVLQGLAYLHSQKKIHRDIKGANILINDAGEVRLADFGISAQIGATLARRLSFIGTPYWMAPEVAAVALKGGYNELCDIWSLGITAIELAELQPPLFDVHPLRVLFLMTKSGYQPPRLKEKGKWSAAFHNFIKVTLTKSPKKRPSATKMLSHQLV
row,SMILES,IC50
1,"Cc1c(-c2cc(F)c3c(c2C)/C(=C/c2cc(C#N)c[nH]2)C(=O)N3)cnc2c1NCCO2 [Compound C12, (Z)-5-((7-fluoro-4-methyl-5-(8-methyl-2,3-dihydro-1H-pyrido[2,3-b][1,4]oxazin-7-yl)-2-oxoindolin-3-ylidene)methyl)-1H-pyrrole-3-carbonitrile]",0.67 nM
2,"Cc1c(-c2ccc3c(c2)/C(=C/c2ccn[nH]2)C(=O)N3)cnc2c1NCCO2 [Compound C30, (Z)-3-((1H-pyrazol-5-yl)methylene)-5-(8-methyl-2,3-dihydro-1H-pyrido[2,3-b][1,4]oxazin-7-yl)indolin-2-one]",0.97 nM
3,"Cc1c(-c2cc(F)c3c(c2C)/C(=C/c2cc4ncccc4[nH]2)C(=O)N3)cnc2c1NCCO2 [Compound C64, (Z)-3-((1H-pyrrolo[3,2-b]pyridin-2-yl)methylene)-7-fluoro-4-methyl-5-(8-methyl-2,3-dihydro-1H-pyrido[2,3-b][1,4]oxazin-7-yl)indolin-2-one]",0.31 nM
4,"Cc1c[nH]c(/C=C2\C(=O)Nc3c(F)cc(-c4cnc5c(c4C)NCCO5)cc32)c1 [Compound C25, (Z)-7-fluoro-3-((4-methyl-1H-pyrrol-2-yl)methylene)-5-(8-methyl-2,3-dihydro-1H-pyrido[2,3-b][1,4]oxazin-7-yl)indolin-2-one]",0.05 nM
5,"Cc1c(-c2cc(F)c3c(c2)/C(=C/c2ccc[nH]2)C(=O)N3)cnc2c1NCCO2 [Compound C26, (Z)-3-((1H-pyrrol-2-yl)methylene)-7-fluoro-5-(8-methyl-2,3-dihydro-1H-pyrido[2,3-b][1,4]oxazin-7-yl)indolin-2-one]",0.05 nM
6,"Cc1c(-c2cc3c(cc2F)NC(=O)/C3=C\c2cc3ccncc3[nH]2)cnc2c1NCCO2 [Compound C43, (Z)-3-((1H-pyrrolo[2,3-c]pyridin-2-yl)methylene)-6-fluoro-5-(8-methyl-2,3-dihydro-1H-pyrido[2,3-b][1,4]oxazin-7-yl)indolin-2-one]",0.13 nM
7,"Cc1c(-c2ccc3c(c2)C(=Cc2cccs2)C(=O)N3)cnc2c1NCCO2 (racemic) [Compound C19, (E and Z)-5-(8-methyl-2,3-dihydro-1H-pyrido[2,3-b][1,4]oxazin-7-yl)-3-(thiophen-2-ylmethylene)indolin-2-one]",1.88 nM
8,"Cc1c(-c2ccc3c(c2)/C(=C/c2ncc[nH]2)C(=O)N3)cnc2c1NCC1(CC1)O2 [Compound C72, (Z)-3-((1H-imidazol-2-yl)methylene)-5-(8′-methyl-1′,2′-dihydrospiro[cyclopropane-1,3′-pyrido[2,3-b][1,4]oxazin]-7′-yl)indolin-2-one]",2.13 nM
9,"Cc1cc(-c2cnc3c(c2C)NCCO3)cc2c1NC(=O)/C2=C\c1cn[nH]c1 [Compound C67, (Z)-3-((1H-pyrazol-4-yl)methylene)-7-methyl-5-(8-methyl-2,3-dihydro-1H-pyrido[2,3-b][1,4]oxazin-7-yl)indolin-2-one]",4.33 nM
10,"CCN(CC)CCNC(=O)c1c(C)[nH]c(/C=C2\C(=O)Nc3ccc(-c4cnc5c(c4C)NCCO5)cc32)c1C [Compound C16, (Z)—N-(2-(diethylamino)ethyl)-2,4-dimethyl-5-((5-(8-methyl-2,3-dihydro-1H-pyrido[2,3-b][1,4]oxazin-7-yl)-2-oxoindolin-3-ylidene)methyl)-1H-pyrrole-3-carboxamide]",0.05 nM
11,"Cc1ncc(/C=C2\C(=O)Nc3cc(F)c(-c4cnc5c(c4C)NCCO5)cc32)[nH]1 [Compound C8, (Z)-6-fluoro-3-((2-methyl-H-imidazol-5-yl)methylene)-5-(8-methyl-2,3-dihydro-1H-pyrido[2,3-b][1,4]oxazin-7-yl)indolin-2-one]",0.18 nM
12,"Cc1c(-c2ccc3c(c2)/C(=C/c2cc4ccccc4[nH]2)C(=O)N3)cnc2c1NCCO2 [Compound C62, (Z)-3-((1H-indol-2-yl)methylene)-5-(8-methyl-2,3-dihydro-1H-pyrido[2,3-b][1,4]oxazin-7-yl)indolin-2-one]",0.05 nM
13,"Cc1c(-c2ccc3c(c2)/C(=C/c2cc4ncccc4[nH]2)C(=O)N3)cnc2c1NCCO2 [Compound C57, (Z)-3-((1H-pyrrolo[3,2-b]pyridin-2-yl)methylene)-5-(8-methyl-2,3-dihydro-1H-pyrido[2,3-b][1,4]oxazin-7-yl)indolin-2-one]",0.05 nM
14,"Cc1c(-c2ccc3c(c2)/C(=C/c2cc4cnccc4[nH]2)C(=O)N3)ccc2c1NC(=O)CO2 [Compound C39, (Z)-6-(3-((1H-pyrrolo[3,2-c]pyridin-2-yl)methylene)-2-oxoindolin-5-yl)-5-methyl-2H-benzo[b][1,4]oxazin-3(4H)-one]",7.03 nM
15,"Cc1c(-c2ccc3c(c2)/C(=C/c2cc(Br)c[nH]2)C(=O)N3)cnc2c1NCCO2 [Compound C20, (Z)-3-((4-bromo-1H-pyrrol-2-yl)methylene)-5-(8-methyl-2,3-dihydro-1H-pyrido[2,3-b][1,4]oxazin-7-yl)indolin-2-one]",0.16 nM
16,"Cc1c(-c2ccc3c(c2)/C(=C/c2ccns2)C(=O)N3)cnc2c1NCCO2 [Compound C18, (Z)-3-(isothiazol-5-ylmethylene)-5-(8-methyl-2,3-dihydro-1H-pyrido[2,3-b][1,4]oxazin-7-yl)indolin-2-one]",3.02 nM
17,"Cc1ncc(/C=C2\C(=O)Nc3ccc(-c4cnc5c(c4C)NCCO5)cc32)[nH]1 [Compound C15, (Z)-3-((2-methyl-H-imidazol-5-yl)methylene)-5-(8-methyl-2,3-dihydro-1H-pyrido[2,3-b][1,4]oxazin-7-yl)indolin-2-one]",0.07 nM
18,"CC/C(=C1/C(=O)Nc2ccc(-c3cnc4c(c3C)NCCO4)cc21)c1cnc[nH]1 [Compound C36, (Z)-3-(1-(1H-imidazol-5-yl)propylidene)-5-(8-methyl-2,3-dihydro-H-pyrido[2,3-b][1,4]oxazin-7-yl)indolin-2-one]",1 nM
19,"Cc1ncc(/C=C2\C(=O)Nc3ccc(-c4ccc5c(c4C)NCCO5)cc32)[nH]1 [Compound C2, (Z)-3-((2-methyl-1H-imidazol-5-yl)methylene)-5-(5-methyl-3,4-dihydro-2H-benzo[b][1,4]oxazin-6-yl)indolin-2-one]",1.95 nM
20,"Cc1c(-c2ccc3c(c2)/C(=C/c2cn[nH]c2)C(=O)N3)cnc2c1NCCO2 [Compound C69, (Z)-3-((1H-pyrazol-4-yl)methylene)-5-(8-methyl-2,3-dihydro-1H-pyrido[2,3-b][1,4]oxazin-7-yl)indolin-2-one]",0.26 nM
21,"Cc1c(-c2cnc3c(c2)/C(=C/c2cc4ccccc4[nH]2)C(=O)N3)cnc2c1NCCO2 [Compound C55, (Z)-3-((1H-indol-2-yl)methylene)-5-(8-methyl-2,3-dihydro-1H-pyrido[2,3-b][1,4]oxazin-7-yl)-1,3-dihydro-2H-pyrrolo[2,3-b]pyridin-2-one]",1.24 nM
22,"Cc1c(-c2cc(Cl)c3c(c2)/C(=C/c2cn[nH]c2)C(=O)N3)cnc2c1NCCO2 [Compound C66, (Z)-3-((1H-pyrazol-4-yl)methylene)-7-chloro-5-(8-methyl-2,3-dihydro-1H-pyrido[2,3-b][1,4]oxazin-7-yl)indolin-2-one]",6.9 nM
23,"Cc1c(-c2cc3c(cc2Cl)NC(=O)/C3=C\c2cc3cnccc3[nH]2)cnc2c1NCCO2 [Compound C48, (Z)-3-((1H-pyrrolo[3,2-c]pyridin-2-yl)methylene)-6-chloro-5-(8-methyl-2,3-dihydro-1H-pyrido[2,3-b][1,4]oxazin-7-yl)indolin-2-one]",0.16 nM
24,"Cc1c(-c2cc(F)c3c(c2)/C(=C/c2cc4ccccc4[nH]2)C(=O)N3)cnc2c1NCCO2 [Compound C53, (Z)-3-((1H-indol-2-yl)methylene)-7-fluoro-5-(8-methyl-2,3-dihydro-1H-pyrido[2,3-b][1,4]oxazin-7-yl)indolin-2-one]",0.16 nM
25,"Cc1ncc(/C=C2\C(=O)Nc3c(F)cc(-c4cnc5c(c4)NCCO5)c(C)c32)[nH]1 [Compound C5, (Z)-5-(2,3-dihydro-H-pyrido[2,3-b][1,4]oxazin-7-yl)-7-fluoro-4-methyl-3-((2-methyl-TH-imidazol-5-yl)methylene)indolin-2-one]",7.43 nM
26,"Cc1c(-c2cc(F)c3c(c2)/C(=C/c2cc4ccncc4[nH]2)C(=O)N3)cnc2c1NCCO2 [Compound C45, (Z)-3-((1H-pyrrolo[2,3-c]pyridin-2-yl)methylene)-7-fluoro-5-(8-methyl-2,3-dihydro-1H-pyrido[2,3-b][1,4]oxazin-7-yl)indolin-2-one]",0.17 nM
